According to PubChem BioAssay (NCI):
Where “and” joins values, the source holds several entries; their conditions need not be identical. Identical values can stand only once.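 Growth conditions: 96-well plates. Treatment: test compound, 48 hours, 5 concentrations. Analysis: linear interpolation between bracketing concentrations; unreached endpoints set to highest concentration. GI50 = concentration required for 50% inhibition of growth. Definition used: TGI = concentration required for complete inhibition of growth.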

Assays:
Assay in all cases: growth of human tumour cells (NCI), 48 h
BT-549 breast = test system: BT-549 breast
MDA-N = test system: MDA-N
RXF-631 renal = test system: RXF-631 renal
DMS 114 small cell lung = test system: DMS 114 small cell lung
M19-MEL melanoma = test system: M19-MEL melanoma
XF 498 CNS = test system: XF 498 CNS
KM20L2 colon = test system: KM20L2 colon
DLD-1 colon = test system: DLD-1 colon
DMS 273 small cell lung = test system: DMS 273 small cell lung

Row | Compound | TGI (BT-549 breast) | TGI (DMS 114 small cell lung) [µM] | TGI (M19-MEL melanoma) [µM] | TGI (KM20L2 colon) [µM] | TGI (DLD-1 colon) [µM] | TGI (DMS 273 small cell lung) [µM] | GI50 (BT-549 breast) [µM] | also measured
1 | O=C1C=CC(O)C2C1CC13SSC4(CC5C(=O)C=CC(O)C5N4C1=O)C(=O)N23 (configuration not stated) | 3.65 µM | – | – | – | – | – | – | –
2 | NCCSCCc1ccccc1 | > 100 µM | – | – | – | – | – | – | TGI (MDA-N): > 100 µM
3 | CCOC(=O)C1=C(Nc2ccc(Cl)c(Cl)c2)OC/C1=N\NS(=O)(=O)c1ccc(C)cc1 | – | > 100 | > 100 | > 100 | > 100 | – | – | TGI (RXF-631 renal): > 100 µM; TGI (XF 498 CNS): > 100 µM
4 | Cc1cc(Cl)ccc1C1OC(=O)c2c1ccc1ccccc21 (configuration not stated) | – | – | > 100 | > 100 | > 100 | > 100 | – | TGI (XF 498 CNS): > 100 µM
5 | Clc1nc(Cl)c2ncn(Cc3ccc(Cn4cnc5c(Cl)nc(Cl)nc54)cc3)c2n1 | 18.9 µM | – | – | – | – | – | – | –
6 | C=C1[C@@H]([C@@]2(C)C=CC(=O)C(C)(C)[C@@H]2CC(=O)OC)CC[C@@]2(C)C(c3ccoc3)OC(=O)[C@H]3O[C@]132 (some centres not stated) | > 100 µM | – | – | – | – | – | – | TGI (MDA-N): > 100 µM
7 | O=[N+]([O-])c1ccc(S(=O)(=O)Cc2ccccc2)c2nonc12 | 33.1 µM | – | – | – | – | – | – | TGI (MDA-N): 40.9 µM
8 | O=C(NS(=O)(=O)c1ccccc1)C(Cc1ccccc1)C(Cc1ccccc1)C(=O)NS(=O)(=O)c1ccccc1 (configuration not stated) | – | > 100 | > 100 | > 100 | > 100 | > 100 | – | –
9 | CC1=C(/C=C/C(C)=C/C=C/C(C)=C/CO)C(C)(C)CCC1 | – | – | – | – | – | – | – | TGI (MDA-N): > 100 µM
10 | Cc1ccc(-c2nc(N3CCCNCC3)c3oc(-c4ccc(C)cc4)nc3n2)cc1 | 35 µM | – | – | – | – | – | 16.3 | –
11 | C=CCCCc1ccc(C(O)CCCCCCCCCCCC)o1 (configuration not stated) | 43.3 µM | – | – | – | – | – | 22.6 | –
12 | Nn1c(N=Nc2c(O)[nH]c3c(Cl)cc(Cl)cc23)n[nH]c1=S | – | > 100 | > 100 | > 100 | > 100 | – | – | –
13 | COc1ccc2c(c1OC)C(=O)c1cnccc1C2=O | – | > 100 | > 100 | > 100 | > 100 | > 100 | – | TGI (RXF-631 renal): > 100 µM; TGI (XF 498 CNS): > 100 µM
14 | Cc1cccc(C(C)(C)C)c1NC(=O)CC1Sc2ccccc2NC1=O (configuration not stated) | – | 83 | > 100 | > 100 | > 100 | > 100 | – | TGI (RXF-631 renal): > 100 µM
15 | COc1cc(Cl)cc(-c2nn(-c3cccc(NC(=O)Nc4ccc(Cl)c(C(F)(F)F)c4)c3)cc2-c2ccncc2)c1 | 6.66 µM | – | – | – | – | – | 2.38 | –
16 | Cc1nc(Nc2nc3ccccc3o2)nc(-c2cccc([N+](=O)[O-])c2)c1C(=O)Nc1ccc(F)c(Cl)c1 | 68.4 µM | – | – | – | – | – | 3.08 | –
17 | O=C1C=CC(CC(=O)c2ccc3ccccc3c2)O1 (configuration not stated) | – | – | > 100 | 34.7 | 80.6 | 45.3 | – | TGI (XF 498 CNS): > 100 µM
18 | COc1ccc(-c2nn(-c3cccc(NC(=O)c4ccc(N5CCOCC5)c(C(F)(F)F)c4)c3)cc2-c2ccncc2)cc1Cl | > 50 µM | – | – | – | – | – | 4.14 | –
19 | C=CS(=O)(=O)CCN1CC1 | > 10 µM | – | – | – | – | – | – | TGI (MDA-N): > 10 µM

Row | Compound | TGI (BT-549 breast) | TGI (DMS 114 small cell lung) [µM] | TGI (M19-MEL melanoma) [µM] | TGI (KM20L2 colon) [µM] | TGI (DLD-1 colon) [µM] | TGI (DMS 273 small cell lung) [µM] | GI50 (BT-549 breast) [µM] | also measured
20 | N#Cc1cc(S(=O)(=O)Nc2nc3ccccc3s2)c(SCc2ccccc2)cc1Cl | 48.9 µM | – | – | – | – | – | 20 | –
21 | O=[N+]([O-])c1cccc(C2=NOC3C4CCC(C4)C23)c1 (configuration not stated) | – | > 100 | > 100 | – | > 100 | > 100 | – | TGI (RXF-631 renal): > 100 µM
22 | Cc1c(Sc2ccccc2)[n+](=O)c2cc(Cl)c(Cl)cc2n1[O-] | 58.9 µM | – | – | – | – | – | 27.8 | –
23 | COc1ccc(Nc2cc(C)nc(N3CCN(c4ccnc5cc(Cl)ccc45)CC3)n2)cc1 | 8.06 µM | – | – | – | – | – | 2.22 | –
24 | CN(/N=N/c1nc(OCc2ccccc2)c2[nH]cnc2n1)C(=O)Oc1ccc([N+](=O)[O-])cc1 | 20.4 µM | – | – | – | – | – | 7.35 | –
25 | O=C(O)c1ccccc1NC(=O)C1CCCCC1 | – | > 100 | > 100 | > 100 | > 100 | > 100 | – | TGI (RXF-631 renal): > 100 µM; TGI (XF 498 CNS): > 100 µM
26 | CCC(Oc1ccc(OC)c2ccccc(=O)c12)C(=O)O (configuration not stated) | – | > 100 | > 100 | – | – | > 100 | – | TGI (RXF-631 renal): > 100 µM
27 | C=C1c2c(Cl)ccc(O)c2C(O)=C2C(=O)[C@]3(O)C(O)=C(C(N)=O)C(=O)[C@@H](N(C)C)[C@@H]3[C@@H](O)[C@H]12 | 3.24 µM | – | – | – | – | – | 1.07 | –
28 | O=C(Nc1ccn(CCI)c(=O)n1)c1ccccc1 | – | > 100 | > 100 | > 100 | > 100 | > 100 | – | –
29 | CCCCCCC(/C=N/O)C(C)(O)CCC (configuration not stated) | – | > 100 | > 100 | > 100 | > 100 | > 100 | – | TGI (XF 498 CNS): > 100 µM
30 | [Cl][Cd][Cl] | 2.07 µM and 17.6 µM | > 55 | 24.1 | – | – | 31.2 | – | GI50 (RXF-631 renal): 38.8 µM; TGI (RXF-631 renal): > 88.9 µM; GI50 (DMS 114 small cell lung): 25.8 µM; GI50 (DMS 273 small cell lung): 15.1 µM; GI50 (M19-MEL melanoma): 11.2 µM; GI50 (XF 498 CNS): 23.4 µM; TGI (XF 498 CNS): 43.1 µM; GI50 (DLD-1 colon): > 58.6 µM; GI50 (MDA-N): 4.61 µM and 8.24 µM; TGI (MDA-N): 21.4 µM
31 | Oc1ccc(Cl)cc1CNc1nc2ccccc2[nH]1 | 23.3 µM | – | – | – | – | – | 9.05 | –
32 | C/C=C(\C)C(=O)N[C@H]1C(O)C[C@]2(C)C3CC[C@@]4(C)C(CC[C@@H]4C(C)N(C)C)C3CCC2C1O (some centres not stated) | 51.9 µM | – | – | – | – | – | 16.9 | –
33 | COC(=O)C1=CC2OC1(C)CCC2=O (configuration not stated) | – | – | – | > 100 | > 100 | > 100 | – | TGI (XF 498 CNS): > 100 µM
34 | O=C1c2nc3n(c2C(=O)c2c1nc1n2CCC1)CCC3 | – | 5.29 | 0.387 | 11.4 | 18.2 | 12.7 | – | TGI (XF 498 CNS): 19.6 µM; TGI (MDA-N): 3.47 µM
35 | O=C(NO)c1ccc(O)c(O)c1 | – | > 100 | > 100 | > 100 | > 100 | 77.8 | – | TGI (RXF-631 renal): > 100 µM; TGI (XF 498 CNS): > 100 µM
36 | O=C1OC(c2ccccc2)=N/C1=C\c1cccc(F)c1 | > 100 µM | – | – | – | – | – | – | TGI (MDA-N): > 100 µM
37 | CO[C@H]1CC(c2ccc[nH]2)=N[C@]12O[C@@H](C)C[C@@H]1CCCCCCCc3ccc([nH]3)[C@H]12 | 9.31 µM | – | – | – | – | – | 1.21 | –
38 | O=S(=O)(C/C(=N\O)c1ccccc1)c1ccccc1 | – | – | > 100 | > 100 | > 100 | > 100 | – | TGI (RXF-631 renal): > 100 µM; TGI (XF 498 CNS): > 100 µM
